In patent US5011850A, “Substituted diazolylalkyl-carbinols, a process for their preparation and their use as antimycotic agents” (Bayer Aktiengesellschaft, priority 1983, dated 1991):
Converted amounts (≈) assume the structure as drawn.

How the values were obtained:
[1] = test system: Candida; test: Antimycotic in vivo activity (oral) in candidosis of mice; design: species or system mice (SPF-CF1); details: 10-50 mg/kg one hour before and seven hours after infection, result in words
Experimental: Mice of the SPF-CF1 type were infested intravenously with 1-2×10^6 logarthmically growing Candida cells, which were suspended in physiological saline solution. The animals were treated with, in each case, 10-50 mg/kg of body weight of the products one hour before and seven hours after the infection.

[2] = test system: Candida albicans; test: Antimycotic in vitro activity, series dilution test; format: cell-based; details: meat extract/glucose broth, 5×10^4 germs/ml, 20° C., 24 to 96 hours
Experimental: (§1) The in vitro tests were carried out in a series dilution test with germ inocula of on average 5×10^4 germs/ml of substrate. The nutrient medium used was (b) for yeasts: meat extract/glucose broth. The incubation temperature was 20° C. and the duration of incubation was 24 to 96 hours in the case of yeasts and 96 hours in the case of dermatophytes and moulds.

[3] = test system: Torulopsis glabrata; test: as above; format: cell-based; details: Nakaseomyces glabratus; meat extract/glucose broth; 5×10^4 germs/ml; 20° C.; 24 to 96 hours
Experimental: as §1

[4] = test system: Aspergillus fumigatus; test: as above; format: cell-based; details: Sabourand's milieu d'epreuve, 5×10^4 germs/ml, 20° C., 96 hours
Experimental: as §1, with “(a)” for “(b)”, “dermatophytes and moulds: Sabourand's milieu d'epreuve, […]” for “yeasts: meat extract/glucose broth.”

[5] = test system: dermatophytes, moulds and yeasts; test: Antimycotic in vitro activity, series dilution test (overall action spectrum); format: cell-based; details: result in words
Experimental: as §1, with “used was (a) for dermatophytes and moulds: Sabourand's milieu d'epreuve, and (b) for” for “used was (b) for”

[6] = test system: Trichophyton mentagr.; test: Antimycotic in vitro activity, series dilution test; format: cell-based, Trichophyton mentagrophytes; details: Sabourand's milieu d'epreuve, 5×10^4 germs/ml, 20° C., 96 hours
Experimental: as §1, with “(a)” for “(b)”, “dermatophytes and moulds: Sabourand's milieu d'epreuve, […]” for “yeasts: meat extract/glucose broth.”

| SMILES | antimycotic action in candidosis of mice (in words) [1] | MIC [2] [µg/mL] | MIC [3] [µg/mL] | MIC [4] [µg/mL] | antimycotic action spectrum in vitro [5] | MIC [6] [µg/mL] |
| --- | --- | --- | --- | --- | --- | --- |
| CC(C)(n1cncn1)C(O)(Cn1cncn1)c1ccc(Cl)cc1 (stereo not drawn) [Example 1, 2-(4-chlorophenyl)-1,3-di-(1,2,4-triazol-1-yl)-3-methyl-2-butanol] | good antimycotic action | – | – | – | – | – |
| CC(C)(n1cncn1)C(O)(Cn1cncn1)c1ccc(F)cc1 (stereo not drawn) [Example 3] | good antimycotic action | 16 (≈ 50.6 µM) | 64 (≈ 202 µM) | > 64 | good antimycotic action spectrum | 16 (≈ 50.6 µM) |
| CC(C)(n1cncn1)C(O)(Cn1cncn1)c1ccccc1 (stereo not drawn) [Example 4] | good antimycotic action | – | – | – | – | – |
| CC(C)(n1cncn1)C(O)(Cn1cncn1)c1ccc(Oc2ccc(Cl)cc2)cc1 (stereo not drawn) [Example 5] | good antimycotic action | 2 (≈ 4.71 µM) | 32 (≈ 75.3 µM) | > 64 | good antimycotic action spectrum | ≤ 1 |
| CC(C)(n1cncn1)C(O)(Cn1cncn1)c1ccc(-c2ccc(Cl)cc2)cc1 (stereo not drawn) [Example 6] | – | 64 (≈ 157 µM) | – | 16 (≈ 39.1 µM) | good antimycotic action spectrum | ≤ 1 |
| CC(C)(n1cncn1)C(O)(Cn1ccnc1)c1ccc(Oc2ccc(Cl)cc2)cc1 (stereo not drawn) [Example 8] | – | 4 (≈ 9.44 µM) | 32 (≈ 75.5 µM) | 64 (≈ 151 µM) | good antimycotic action spectrum | 8 (≈ 18.9 µM) |
| CC(C)(n1cncn1)C(O)(Cn1ccnc1)c1ccc(-c2ccc(Cl)cc2)cc1 (stereo not drawn) [Example 9] | – | 8 (≈ 19.6 µM) | 8 (≈ 19.6 µM) | 32 (≈ 78.4 µM) | good antimycotic action spectrum | 4 (≈ 9.81 µM) |
| CC(n1cncn1)C(O)(Cn1cncn1)c1ccc(-c2ccccc2)cc1 (stereo not drawn) [Example 10] | – | 2 (≈ 5.55 µM) | 64 (≈ 178 µM) | 64 (≈ 178 µM) | good antimycotic action spectrum | 2 (≈ 5.55 µM) |
